In ChEMBL document CHEMBL1135698, “Synthesis, antitumor activity, molecular modeling, and DNA binding properties of a new series of imidazonaphthalimides” (J Med Chem, 2002):

The molecules below were run on HeLa (assay: In vitro concentration required to reduce cell number to 50% in human cervical carcinoma (HeLa) culture).
Type: functional, cell-based
With `Cc1nc2cc3c4c(cccc4c2[nH]1)C(=O)N(CCCN(C)CCCN1C(=O)c2cccc4c2c(cc2nc(C)[nH]c24)C1=O)C3=O` the IC50 was greater than 100 µM. Molecule `Cc1nc2cc3c4c(cccc4c2[nH]1)C(=O)N(CCN(C)CCCN(C)CCN1C(=O)c2cccc4c2c(cc2nc(C)[nH]c24)C1=O)C3=O` has an IC50 of 0.8 µM. In the case of `Cc1nc2c(cc3c4c(cccc42)C(=O)N(CCN2CCCC2)C3=O)[nH]1`, the IC50 is reported as 6.09 µM. `Cc1nc2c(cc3c4c(cccc42)C(=O)N(CCNCCNCCN2C(=O)c4cccc5c4c(cc4nc(C)[nH]c45)C2=O)C3=O)[nH]1` showed an IC50 of 3.49 µM. `Cc1nc2cc3c4c(cccc4c2[nH]1)C(=O)N(CCN(C)C)C3=O` gave an IC50 of 2.35 µM. `Cc1nc2cc3c4c(cccc4c2[nH]1)C(=O)N(CCN(C)CCN1C(=O)c2cccc4c2c(cc2nc(C)[nH]c24)C1=O)C3=O` was tested, and the IC50 was 4.45 µM. Work on `Cc1nc2c(cc3c4c(cccc42)C(=O)N(CCNCCCNCCN2C(=O)c4cccc5c4c(cc4nc(C)[nH]c45)C2=O)C3=O)[nH]1` yielded an IC50 of 8.26 µM. `Cc1nc2cc3c4c(cccc4c2[nH]1)C(=O)N(CCN(C)CCN(C)CCN1C(=O)c2cccc4c2c(cc2nc(C)[nH]c24)C1=O)C3=O` was tested, and the IC50 was 8.62 µM. `Cc1nc2c(cc3c4c(cccc42)C(=O)N(CCCNCCNCCCN2C(=O)c4cccc5c4c(cc4nc(C)[nH]c45)C2=O)C3=O)[nH]1` gave an IC50 of 8.75 µM. In the case of `CN(C)CCN1C(=O)c2cccc3cc(N)cc(c23)C1=O` [AMONAFIDE], the IC50 is reported as 2.73 µM. `O=C1c2cccc3cccc(c23)C(=O)N1CCNCCCNCCN1C(=O)c2cccc3cccc(c23)C1=O` [ELINAFIDE] showed an IC50 of 0.07 µM.

These molecules were tested on HT-29 (assay: In vitro concentration required to reduce cell number to 50% in human colon carcinoma (HT-29) culture).
Type: functional, cell-based
In the case of `Cc1nc2cc3c4c(cccc4c2[nH]1)C(=O)N(CCCN(C)CCCN1C(=O)c2cccc4c2c(cc2nc(C)[nH]c24)C1=O)C3=O`, the IC50 is reported as greater than 100 µM. `Cc1nc2cc3c4c(cccc4c2[nH]1)C(=O)N(CCN(C)CCCN(C)CCN1C(=O)c2cccc4c2c(cc2nc(C)[nH]c24)C1=O)C3=O` showed an IC50 of 0.32 µM. `Cc1nc2c(cc3c4c(cccc42)C(=O)N(CCN2CCCC2)C3=O)[nH]1` gave an IC50 of 3.11 µM. Molecule `Cc1nc2c(cc3c4c(cccc42)C(=O)N(CCNCCNCCN2C(=O)c4cccc5c4c(cc4nc(C)[nH]c45)C2=O)C3=O)[nH]1` has an IC50 of 1.08 µM. With `Cc1nc2cc3c4c(cccc4c2[nH]1)C(=O)N(CCN(C)C)C3=O` the IC50 was 0.94 µM. For `Cc1nc2cc3c4c(cccc4c2[nH]1)C(=O)N(CCN(C)CCN1C(=O)c2cccc4c2c(cc2nc(C)[nH]c24)C1=O)C3=O`, the IC50 was 17.5 µM. Work on `Cc1nc2c(cc3c4c(cccc42)C(=O)N(CCNCCCNCCN2C(=O)c4cccc5c4c(cc4nc(C)[nH]c45)C2=O)C3=O)[nH]1` yielded an IC50 of 8.5 µM. In the case of `Cc1nc2cc3c4c(cccc4c2[nH]1)C(=O)N(CCN(C)CCN(C)CCN1C(=O)c2cccc4c2c(cc2nc(C)[nH]c24)C1=O)C3=O`, the IC50 is reported as 3.83 µM. Work on `Cc1nc2c(cc3c4c(cccc42)C(=O)N(CCCNCCNCCCN2C(=O)c4cccc5c4c(cc4nc(C)[nH]c45)C2=O)C3=O)[nH]1` yielded an IC50 of 15 µM. Molecule `CN(C)CCN1C(=O)c2cccc3cc(N)cc(c23)C1=O` [AMONAFIDE] has an IC50 of 4.67 µM. `O=C1c2cccc3cccc(c23)C(=O)N1CCNCCCNCCN1C(=O)c2cccc3cccc(c23)C1=O` [ELINAFIDE] gave an IC50 of 0.017 µM.

These molecules were tested on PC-3 (assay: In vitro concentration required to reduce cell number to 50% in human postrate carcinoma (PC-3) culture).
Type: functional, cell-based
With `Cc1nc2cc3c4c(cccc4c2[nH]1)C(=O)N(CCCN(C)CCCN1C(=O)c2cccc4c2c(cc2nc(C)[nH]c24)C1=O)C3=O` the IC50 was 36.3 µM. `Cc1nc2cc3c4c(cccc4c2[nH]1)C(=O)N(CCN(C)CCCN(C)CCN1C(=O)c2cccc4c2c(cc2nc(C)[nH]c24)C1=O)C3=O` gave an IC50 of 3.22 µM. For `Cc1nc2c(cc3c4c(cccc42)C(=O)N(CCN2CCCC2)C3=O)[nH]1`, the IC50 was 4.22 µM. `Cc1nc2c(cc3c4c(cccc42)C(=O)N(CCNCCNCCN2C(=O)c4cccc5c4c(cc4nc(C)[nH]c45)C2=O)C3=O)[nH]1` showed an IC50 greater than 100 µM. Work on `Cc1nc2cc3c4c(cccc4c2[nH]1)C(=O)N(CCN(C)C)C3=O` yielded an IC50 of 10.4 µM. `Cc1nc2cc3c4c(cccc4c2[nH]1)C(=O)N(CCN(C)CCN1C(=O)c2cccc4c2c(cc2nc(C)[nH]c24)C1=O)C3=O` gave an IC50 greater than 100 µM. Work on `Cc1nc2c(cc3c4c(cccc42)C(=O)N(CCNCCCNCCN2C(=O)c4cccc5c4c(cc4nc(C)[nH]c45)C2=O)C3=O)[nH]1` yielded an IC50 greater than 100 µM. `Cc1nc2cc3c4c(cccc4c2[nH]1)C(=O)N(CCN(C)CCN(C)CCN1C(=O)c2cccc4c2c(cc2nc(C)[nH]c24)C1=O)C3=O` was tested, and the IC50 was greater than 100 µM. In the case of `Cc1nc2c(cc3c4c(cccc42)C(=O)N(CCCNCCNCCCN2C(=O)c4cccc5c4c(cc4nc(C)[nH]c45)C2=O)C3=O)[nH]1`, the IC50 is reported as 744 µM. `CN(C)CCN1C(=O)c2cccc3cc(N)cc(c23)C1=O` [AMONAFIDE] showed an IC50 of 6.38 µM. Molecule `O=C1c2cccc3cccc(c23)C(=O)N1CCNCCCNCCN1C(=O)c2cccc3cccc(c23)C1=O` [ELINAFIDE] has an IC50 of 0.32 µM.
